For one series, the system named is A375. The series is described as follows: Compounds cellular killing (Cell Titer-Glo, 6 days, 2D). Conditions: for cell-killing activity compared with Dxd: A375; for EC50 / Emax: Homo sapiens; for Emax: read-out: Emax. Type of series: cell-based, human. As to the method:
(§1) The cell line was grown in a humidified 5% CO2 atmosphere at 37° C., and was regularly tested for the presence of mycoplasma with MycoAlert™ PLUS Mycoplasma Detection Kit (Lonza, LT07-710).
(§2) Incubation at 37° C., 5% CO2, overnight.
(§3) Adding the fresh growth-medium containing the varying concentrations of compounds, 50 ul/well.
(§4) Incubation at 37° C., 5% CO2, 6 days.
(§5) The cell viability detected by Cell Titer-Glo (Promega, G7573). Add 70 µL/well of CellTiter-Glo® Reagent in each well.
(§6) Allow the plates to incubate at room temperature for 10 minutes to stabilize luminescent signal.
(§7) Analyze with Microplate Reader.
Background: Cellular ATP, detected with luciferase, serves as a proxy for viable cell number.

A further series relates to Calu-6. Described as above. Conditions: for EC50 / Emax: Homo sapiens; for Emax: read-out: Emax. It counts as cell-based. The method, then: as §1, §2, §3, §4, §5, §6, §7
The next series is described as follows: in vitro. The settings on record: PAMPA.
The mark [1] stands for this setting: A-375, Table 27, free payload, A375, 2D (Her3 ++).
Setting [2] is: A-375, […], Table 29, payload, A375, 6d, 2D (Her3++).
Where [3] appears, read: A-375, Table 29, payload, A375, 6d, 2D (Her3++).
Setting [4] is: Calu-6, Table 27, free payload, Calu-6, 2D (HER3 neg.).
[5] abbreviates: Calu-6, […], Table 29, payload, Clau6, 6d, 2D (Her3 neg).
Where [6] appears, read: Calu-6, Table 29, payload, Clau6, 6d, 2D (Her3 neg).

By EC50 is commonly meant the midpoint of the concentration-response curve. Higher therefore signals weaker potency. A word on the Emax: it is the greatest response seen or fitted, relative to the assay's reference.

Read-outs that look alike come from different tables or passages of the source.

As to `CC[C@@]1(O)C(=O)OCc2c1cc1n(c2=O)Cc2c-1nc1cc(F)c(C)c3c1c2[C@@H](NC(=O)C(C)(C)CO)CC3` [Compound 66, N-((1S,9S)-9-ethyl-5-fluoro-9-hydroxy-4-methyl-10,13-dioxo-2,3,9,10,13,15-hexahydro-1H,12H-benzo[de]pyrano[3′,4′:6,7]indolizino[1,2-b]quinolin-1-yl)-3-hydroxy-2,2-dimethylpropanamide], the “PAMPA -Log Pe” value was determined as 5.89. Also, the “cell-killing activity compared with Dxd” value in the series with A375 is reported as “stronger cell-killing activity than Dxd”. In the series with A375 (setting [1]), this compound had an EC50 of 1.1 nM. The EC50 in the series on A375 (setting [2]) was 1.1 nM. In the series with A375 (A-375, Table 21, A375), the EC50 came out at 1.1 nM and the Emax was 99.9%. In addition, the Emax in the series on A375 (setting [3]) turned out to be 99.9%. Moreover, the “cell-killing activity compared with Dxd” value in the series with Calu-6 (Calu-6) is listed as “stronger cell-killing activity than Dxd”. For the same compound, a half-maximal response with Calu-6 (Calu-6, Table 21, Calu-6) (EC50) required 0.3 nM. Further, the EC50 in the series with Calu-6 (setting [4]) worked out at 0.3 nM. The EC50 in the series with Calu-6 (setting [5]) was 0.3 nM. Moreover, the Emax in the series on Calu-6 (setting [6]) is 97.3%. The Emax in the series with Calu-6 (Table 21, Calu-6) was 97.3%. Moreover, the recovery in the series “in vitro” came out at 79.7%.
`CC[C@@]1(O)C(=O)OCc2c1cc1n(c2=O)Cc2c-1nc1cc(F)c(C)c3c1c2[C@@H](NC(=O)CCO)CC3` [Compound 72]: the “PAMPA -Log Pe” value was determined as 6.02. In addition, the “cell-killing activity compared with Dxd” value with A375 is on record as “less potent than Dxd”. The same compound gave an EC50 in the series with A375 (setting [1]) of 4.4 nM. The compound further displayed an EC50 with A375 (setting [2]) of 4.4 nM. For the same compound, in the series on A375 (A-375, Table 21, A375), the EC50 was determined as 4.4 nM and the Emax came to 99.9%. Also, the Emax with A375 (setting [3]) stood at 99.9%. For the same compound, in the series on Calu-6 (Calu-6), the “cell-killing activity compared with Dxd” value is “less potent than Dxd”. In the series on Calu-6 (Calu-6, Table 21, Calu-6), the EC50 is 2 nM. Also, the EC50 in the series on Calu-6 (setting [4]) is 2 nM. In the series on Calu-6 (setting [5]), a half-maximal response (EC50) required 2 nM. In addition, the Emax in the series on Calu-6 (setting [6]) was 98.3%. Besides, in the series with Calu-6 (Table 21, Calu-6), the Emax was found to be 98.3%. The same compound had a recovery in the series “in vitro” of 48.1%.

Source of the values: patent publication US20250135026A1, “Antibody Drug Conjugates” (BeiGene Switzerland GmbH, priority 2021, published 2025).
